In test [1] the target is GST–TTBK2-(1–450) wild-type (Homo sapiens, UniProt Q6IQ55). Put plainly: TTBK2 peptide kinase assay. Format: biochemical.
Test [2] deals with TTBK2[R181A or R181E] or TTBK2[A184G or A184E] mutants, GST–TTBK2-(1–450). Put plainly: TTBK2 peptide kinase assay with phosphate-priming groove mutants. It is filed as biochemical, human. The settings on record: read-out: Km of peptide phosphorylation by TTBK2 mutants, 0.1 mM [γ-32P]ATP, 20 min at 30 °C, non-linear regression.
For test [3], the system named is lymphoblasts from SCA11-affected individuals. The following applies: cycloheximide as inhibitor of nonsense-mediated decay; cited from earlier work.

GST–TTBK2-(1–450) wild-type, sequence (Q6IQ55 1-450): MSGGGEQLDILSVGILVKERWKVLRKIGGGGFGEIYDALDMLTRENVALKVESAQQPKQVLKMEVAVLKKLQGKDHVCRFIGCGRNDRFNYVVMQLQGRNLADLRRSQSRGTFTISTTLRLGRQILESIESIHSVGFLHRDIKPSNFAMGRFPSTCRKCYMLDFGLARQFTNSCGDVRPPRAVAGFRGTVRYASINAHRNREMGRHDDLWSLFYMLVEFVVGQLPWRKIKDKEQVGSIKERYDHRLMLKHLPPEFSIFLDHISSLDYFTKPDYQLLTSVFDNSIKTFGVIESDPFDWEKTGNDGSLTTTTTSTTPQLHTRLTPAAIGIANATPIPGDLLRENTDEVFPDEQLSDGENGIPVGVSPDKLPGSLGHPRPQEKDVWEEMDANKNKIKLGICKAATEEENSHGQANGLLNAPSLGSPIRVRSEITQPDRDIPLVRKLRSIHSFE

Turning to “RRKDLHDDEEDEAMS*ITA [CK1tide, reference compound]”, the “peptide phosphorylation by TTBK2 (in words)” value in test [1] (TTBK2-(1–450)) was “phosphorylates CK1tide specifically at this serine residue”. For orientation: Km means the concentration of substrate that gives half-maximal velocity. As to RRKDLHDDEEDEAMSIYpA [TTBKtide], in test [1] (relative to CK1tide), the “decrease of Km value by introducing a phosphotyrosine at the +2 position” value is on record as “approximately 8 fold”. The “Vmax of peptide phosphorylation by TTBK2” value in test [1] (wild-type TTBK2, 0.1 mM [γ-32P]ATP, 20 min at 30 °C, non-linear regression) stood at 76 units/mg. In addition, the Michaelis constant (Km) in test [2] lay within 100 to 150 µM. In the case of `C[C@@H]1C[C@@H]([C@H](O)CC2CC(=O)NC(=O)C2)C(=O)[C@@H](C)C1` [cycloheximide], in test [3], the “TTBK2 mRNA level” value is “increased TTBK2 mRNA to levels that are similar in the normal transcript”.

The record behind these values is paper PMC3739326 (The Biochemical journal, 2011).
